# Laboratory results as given in paper PMC12299477 (Viruses, 2025).
# What was measured:
# IFV-A H1N1 [1] = assay: Virus inhibition assay (focus reduction), IFV-A H1N1 on MDCK cells; assay type: cell-based; settings: Influenza A virus, read-out: EC50 (µM) (95% CI)
# HCoV-OC43 [2] = assay: Virus inactivation (virucidal) assay, HCoV-OC43; assay type: cell-based, human coronavirus; settings: EC90 dose, 2 h incubation with 200,000 FFUs
# [3] = Cell viability MTS assay on MDCK cells; settings: dog
# RSV-B = assay: Virus inhibition assay, RSV strain B WV/14617/85 on Hep-2 cells; assay type: cell-based; settings: human respiratory syncytial virus; RSV B WV/14617/85, Hep-2 cells; read-out: EC50 (µM) (95% CI)
# HCoV-229E = assay: Virus inhibition assay, HCoV-229E on MRC-5 cells; assay type: cell-based; settings: Human coronavirus 229E, MRC5, read-out: EC50 (µM) (95% CI)
# RSV-A2 [4] = assay: Virus inactivation (virucidal) assay, RSV-A2; assay type: cell-based, respiratory syncytial virus; settings: EC90 dose, 2 h incubation with 200,000 PFUs
# IFV-A H1N1 [5] = assay: Virus inhibition assay, IFV-A H1N1 on A549 cells; assay type: cell-based; settings: Influenza A virus, read-out: EC50 (µM) (95% CI)
# [6] = Cell viability MTS assay on MRC-5 cells; assay type: cell-based; settings: human, same conditions as HCoV inhibition assay, read-out: CC50 (µM) (95% CI)
# RSV-A2 [7] = assay: Time-of-addition assay, RSV-A2; assay type: cell-based, respiratory syncytial virus
# IFV-B = assay: Virus inhibition assay, IFV-B on MDCK cells; assay type: cell-based; settings: unidentified influenza virus, read-out: EC50 (µM) (95% CI)
# HCoV-OC43 [8] = assay: Time-of-addition assay, HCoV-OC43; assay type: cell-based, human coronavirus; settings: for EC50: Betacoronavirus 1, HCoV-OC43
# HCoV-OC43 [9] = assay: Virus inhibition assay (focus reduction), HCoV-OC43 on MRC-5 cells; assay type: cell-based, human coronavirus; settings: Betacoronavirus 1, OC43, MRC5, read-out: EC50 (µM) (95% CI)
# RSV-A2 [10] = assay: Immunofluorescence of dsRNA and viral protein, RSV-A2 in Hep-2 cells; assay type: cell-based, respiratory syncytial virus; settings: EC50 (2µM) or 2-fold EC90 dose (30µM), 24h post-infection
# [11] = Cell viability MTS assay on Hep-2 cells; settings: human
# Hep-2 cells = assay: Cytotoxic effect microscopically visible in the RSV-A2 screening; assay type: cell-based, human; parameters: key: -: Cytotoxic effect microscopically visible; settings: 33 µM
# RSV-A2 [12] = assay: Virus inhibition assay, RSV-A2 on A549 cells; assay type: cell-based; settings: human respiratory syncytial virus, read-out: EC50 (µM) (95% CI)
# HCoV-OC43 [13] = assay: Virus inhibition assay, HCoV-OC43 on A549 cells; assay type: cell-based, human coronavirus; settings: Betacoronavirus 1, read-out: EC50 (µM) (95% CI)
# RSV-A2 [14] = assay: Anti-RSV activity on a 3D model of human bronchial epithelium; assay type: cell-based, respiratory syncytial virus; settings: for Reduction in RSV progeny: 72 h post-infection, 10,000 PFUs
# in vitro = settings: human
# [15] = system: human bronchial epithelium (MucilAir); assay: LDH cytotoxicity assay on 3D human bronchial epithelium; assay type: cell-based; settings: 6 µM and 12 µM, harvested daily up to 72 h
# IFV-A H3N2 = assay: Virus inhibition assay, IFV-A H3N2 on MDCK cells; assay type: cell-based; settings: Influenza A virus, read-out: EC50 (µM) (95% CI)
# RSV-A2 [16] = assay: Virus inhibition assay (plaque reduction), RSV-A2 on Hep-2 cells; assay type: cell-based; settings: human respiratory syncytial virus; RSV-A2, Hep-2 cells; read-out: EC50 (µM) (95% CI)
smiles,measurement,setting,value
CC(C)(CC(=O)O)NC(=O)c1cc(-c2ccccc2)c(=O)n2c1sc1ccc(OC3CCCCC3)cc12 [Compound 1],EC50,IFV-A H1N1 [1],5.49 µM
same,Virucidal activity: HCoV-OC43 titer,HCoV-OC43 [2],modest—although negligible—reduction
same,CC50,[3],41.1 µM
same,EC50,RSV-B,4.23 µM
same,EC50,HCoV-229E,45.3 µM
same,Virucidal activity on extracellular RSV particle,RSV-A2 [4],did not directly inactivate
same,EC50,IFV-A H1N1 [5],6.29 µM
same,CC50,[6],59.6 µM
same,"Activity against RSV, pre-treatment",RSV-A2 [7]; compound added 2 h before infection,not active
same,"Activity against RSV, co-treatment","RSV-A2 [7]; compound added with virus inoculum, first 2 h of infection",not active
same,EC50,"RSV-A2 [7]; human respiratory syncytial virus, RSV, treated 72 h after removal of viral inoculum, read-out: EC50, post-treatment",8.2 µM
same,EC50,IFV-B,4.21 µM
same,EC50,"HCoV-OC43 [8]; after infection, read-out: EC50, post-treatment",7.5 µM
same,EC50,"HCoV-OC43 [8]; during infection, read-out: EC50, co-treatment",16.3 µM
same,"Activity against HCoV-OC43, treatment before the infection",HCoV-OC43 [8]; pre-treatment,did not exert inhibitory activity
same,EC50,HCoV-OC43 [9],4.83 µM
same,Effect on nucleic acid replication and viral protein production of RSV-A2,RSV-A2 [10],did not inhibit
same,CC50,[11],61.3 µM
same,Cytotoxic effect microscopically visible,Hep-2 cells,- ^a
same,EC50,RSV-A2 [12],7.78 µM
same,EC50,HCoV-OC43 [13],8.14 µM
same,Reduction in RSV progeny,RSV-A2 [14]; 6 µM every 24 h,1.1 log
same,Reduction in RSV progeny,RSV-A2 [14]; 12 µM every 24 h,1.5 log
same,Morphology of the bronchial epithelial cells in infected treated sample,"RSV-A2 [14]; brightfield images, compared to infected untreated",sufficiently preserved
same,Anti-RSV immunopositivity of the epithelia,"RSV-A2 [14]; end of experiment, immunofluorescence",reduction in immunopositivity
same,CC50,in vitro,57.6 µM
same,CC50,"in vitro; CC50 (µM) (95% CI), A549 cells, HCoV OC43 assay conditions",150 µM
same,CC50,"in vitro; CC50 (µM) (95% CI), A549 cells, RSV A2 assay conditions",30.8 µM
same,Cytotoxic effect on the epithelia (LDH assay on basal media),[15],did not exert any cytotoxic effect
same,EC50,IFV-A H3N2,5.96 µM
same,EC50,RSV-A2 [16],1.3 µM
